{
  "source": "patent US9376425B2",
  "about": "“Heterocyclic compounds as MDM2 inhibitors for the treatment of cancer” (AMGEN INC., priority 2011, dated 2016)",
  "data": [
    {"molecular_target": "T1, human MDM2 (GST-hMDM2 aa 1-188), interaction with biotinylated-p53 (aa 1-83) (Homo sapiens, UniProt Q00987)", "T1 construct": "Amino acid residues 1-188 of human MDM2 were expressed; made in house; host or cells: Escherichia coli", "T1 sequence (Q00987 1-188)": "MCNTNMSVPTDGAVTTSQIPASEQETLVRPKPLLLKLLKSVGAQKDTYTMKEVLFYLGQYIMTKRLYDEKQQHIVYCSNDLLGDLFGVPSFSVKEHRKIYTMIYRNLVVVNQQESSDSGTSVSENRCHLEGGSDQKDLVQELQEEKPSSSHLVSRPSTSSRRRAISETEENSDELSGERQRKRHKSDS", "test": "Homogenous Time-Resolved Fluorescence Assay (HTRF1 assay), inhibition of HDM2-p53 interaction", "format": "binding", "conditions": "2.5 nM GST-hMDM2, 5 nM biotinylated-p53, 200 mM KF", "summary_of_the_method": "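GST-hMDM2 preincubated 20 min at room temperature with serially diluted compound, then biotinylated p53 (aa 1-83, AviTag-TrxA-6xHis fusion) added for 60 min. SA-XLent/anti-GST cryptate detection equilibrated >4 h; final DMSO 2%. Time-resolved fluorescence read; percent inhibition relative to nutlin-3.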", "units": {"IC50": "nM"}, "values": [
      {"molecule": "O=C(O)C[C@@H]1O[C@H](c2cccc(Cl)c2)[C@@H](c2ccc(C(F)(F)F)cc2)N(CC2CC2)C1=O", "note": "[Example 57, 2-((2S,5R,6R)-6-(3-Chlorophenyl)-4-(cyclopropylmethyl)-3-oxo-5-(4-(trifluoromethyl)phenyl)morpholin-2-yl)acetic acid]", "IC50": 800},
      {"molecule": "C[C@@H](C1CCCCC1)N1C(=O)[C@H](CC(=O)O)O[C@H](c2cccc(Cl)c2)[C@H]1c1ccc(Cl)cc1", "note": "(single isomer, unassigned) [Example 19, 2-((2S,5R,6R)-6-(3-chlorophenyl)-5-(4-chlorophenyl)-4-((S)-1-cyclohexylethyl)-3-oxomorpholin-2-yl)acetic acid or 2-((2S,5R,6R)-6-(3-chlorophenyl)-5-(4-chlorophenyl)-4-((R)-1-cyclohexylethyl)-3-oxomorpholin-2-yl)acetic acid]", "IC50": 600},
      {"molecule": "CCCN1C(=O)[C@@H](CC(=O)O)O[C@H](c2cccc(Cl)c2)[C@H]1c1ccc(Cl)cc1", "note": "[Example 48, 2-((2R,5R,6R)-6-(3-Chlorophenyl)-5-(4-chlorophenyl)-3-oxo-4-propylmorpholin-2-yl)acetic acid]", "IC50": 500},
      {"molecule": "O=C(O)CC1O[C@H](c2cncc(Cl)c2)[C@@H](c2ccc(Cl)cc2)N(CC2CC2)C1=O", "note": "(single isomer, unassigned) [Example 88]", "IC50": 2100},
      {"molecule": "O=C(O)CC1O[C@H](c2cccc(Cl)c2)[C@@H](c2ccc(Cl)cc2Br)N(CC2CC2)C1=O", "note": "(single isomer, unassigned) [Example 80]", "IC50": 14800},
      {"molecule": "O=C(O)CC1O[C@H](c2cccc(Cl)c2)[C@@H](c2ccc(Cl)nc2)N(CC2CC2)C1=O", "note": "(single isomer, unassigned) [Example 72]", "IC50": 1500},
      {"molecule": "C[C@@H](C1CCC1)N1C(=O)[C@H](CC(=O)O)O[C@H](c2cccc(Cl)c2)[C@H]1c1ccc(Cl)cc1", "note": "[Example 23, 2-((2S,5R,6R)-6-(3-Chlorophenyl)-5-(4-chlorophenyl)-4-((S)-1-cyclobutylethyl)-3-oxomorpholin-2-yl)acetic acid]", "IC50": 300},
      {"molecule": "CCc1ccc([C@@H]2[C@@H](c3cccc(Cl)c3)O[C@@H](CC(=O)O)C(=O)N2CC2CC2)cc1", "note": "[Example 58, 2-((2S,5R,6R)-6-(3-Chlorophenyl)-4-(cyclopropylmethyl)-5-(4-ethylphenyl)-3-oxomorpholin-2-yl)acetic acid]", "IC50": 900},
      {"molecule": "O=C(O)C[C@@H]1O[C@H](c2cccc(Cl)c2)[C@@H](c2ccc(Cl)cc2)N(Cc2ncco2)C1=O", "note": "[Example 43, 2-((2S,5R,6R)-6-(3-Chlorophenyl)-5-(4-chlorophenyl)-4-(oxazol-2-ylmethyl)-3-oxomorpholin-2-yl)acetic acid]", "IC50": 1100},
      {"molecule": "O=C(O)CC1O[C@H](c2cc(Cl)ccc2F)[C@@H](c2ccc(Cl)cc2)N(CC2CC2)C1=O", "note": "(single isomer, unassigned) [Example 101]", "IC50": 600},
      {"molecule": "O=C(O)CC1O[C@H](c2cc(Cl)cc(Cl)c2)[C@@H](c2ccc(Cl)cc2)N(CC2CC2)C1=O", "note": "(single isomer, unassigned) [Example 93]", "IC50": 300},
      {"molecule": "O=C(O)C[C@H]1O[C@H](c2cccc(Cl)c2)[C@@H](c2nc3ccccc3s2)N(CC2CC2)C1=O", "note": "(racemic) [Example 4, 2-((2R,5S,6R)-5-(Benzo[d]thiazol-2-yl)-6-(3-chlorophenyl)-4-(cyclopropylmethyl)-3-oxomorpholin-2-yl)acetic acid and 2-((2S,5R,6S)-5-(Benzo[d]thiazol-2-yl)-6-(3-chlorophenyl)-4-(cyclopropylmethyl)-3-oxomorpholin-2-yl)acetic acid]", "IC50": 25000},
      {"molecule": "O=C(O)C[C@@H]1O[C@H](c2cccc(Cl)c2)[C@@H](c2ccccc2)N(CC2CC2)C1=O", "note": "[Example 55, 2-((2S,5R,6R)-6-(3-Chlorophenyl)-4-(cyclopropylmethyl)-3-oxo-5-phenylmorpholin-2-yl)acetic acid]", "IC50": 3300},
      {"molecule": "O=C(O)C[C@@H]1O[C@H](c2cccc(Cl)c2)[C@@H](c2ccc(Cl)cc2)N(C2CCC2)C1=O", "note": "[Example 12, 2-((2S,5R,6R)-6-(3-Chlorophenyl)-5-(4-chlorophenyl)-4-cyclobutyl-3-oxomorpholin-2-yl)acetic acid]", "IC50": 900},
      {"molecule": "O=C(O)C[C@H]1O[C@H](c2cc(Cl)cc(-c3cn[nH]c3)c2)[C@@H](c2ccc(Cl)cc2)N(CC2CC2)C1=O", "note": "(single isomer, unassigned) [Example 106]", "IC50": 5200},
      {"molecule": "O=C(O)CC1O[C@H](c2cc(F)cc(F)c2)[C@@H](c2ccc(Cl)cc2)N(CC2CC2)C1=O", "note": "(single isomer, unassigned) [Example 97]", "IC50": 500}
    ]}
  ]
}
